From US10030020B2, “Spirocycle compounds and methods of making and using same” (Abide Therapeutics, Inc., priority 2016, dated 2018)
pIC50: −log10 of the molar value. Where two headings read alike, the source gives them in different places.

Assays:
[1] = molecular target: T1, MAGL (Mus musculus (Mouse), UniProt O35678); experiment: In vitro competitive activity-based protein profiling (mouse brain membrane fraction or cell lysates), MAGL band; format: biochemical; details: for inhibition at 1 µM: read-out: MAGL % Inh 1 μM (mouse); for pIC50: competitive ABPP
Experimental: In Vitro Competitive Activity-Based Protein Profiling.
Proteomes (mouse brain membrane fraction or cell lysates) (50 μL, 1.0 mg/mL total protein concentration) were preincubated with varying concentrations of inhibitors at 37° C. After 30 min, FP—Rh (1.0 μL, 50 μM in DMSO) was added and the mixture was incubated for another 30 min at 37° C. Reactions were quenched with SDS loading buffer (50 μL-4×) and run on SDS-PAGE.

[2] = molecular target: T2, ABHD6 (Mus musculus (Mouse), UniProt Q8R2Y0); experiment: In vitro competitive activity-based protein profiling (mouse brain membrane fraction or cell lysates), ABHD6 band; format: biochemical; details: for inhibition at 1 µM: read-out: ABHD6 % Inh 1 μM (mouse); for pIC50: competitive ABPP
In short: (§1)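 Mouse proteome samples (brain membrane fraction or cell lysate, 1.0 mg/mL protein) were pretreated with varying inhibitor concentrations and subsequently probed with fluorophosphonate-rhodamine, each step lasting 30 min at 37° C. Labelled proteins were separated by SDS-PAGE, and band fluorescence was imaged and quantified.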

[3] = molecular target: T3, FAAH (Mus musculus (Mouse), UniProt O08914); experiment: In vitro competitive activity-based protein profiling (mouse brain membrane fraction or cell lysates), FAAH band; format: biochemical; details: for inhibition at 1 µM: read-out: FAAH % Inh 1 μM (mouse); for pIC50: competitive ABPP
In short: as §1

[4] = molecular target: T1, MAGL; experiment: Mouse brain proteomes from inhibitor treated mice (oral gavage, sacrificed 4 h after administration, ABPP analysis); format: in vivo, mouse (C57Bl/6J); details: 5 mg/kg oral gavage
Experimental: (§2) Preparation of Mouse Brain Proteomes from Inhibitor Treated Mice.
(§3) Inhibitors were administered to wild-type C57Bl/6J by oral gavage in a vehicle, e.g. PEG400/Ethanol/PBS (7/2/1). Each animal was sacrificed 4 h following administration and brain proteomes were prepared and analyzed according to previously established methods (See Niphakis, M. J., et al. (2011) ACS Chem. Neurosci. and Long, J. Z., et al. Nat. Chem. Biol. 5:37-44). Data from this assay is shown in Table 2 (% inhibition at 5 mg/kg).

[5] = molecular target: T3, FAAH; experiment: Mouse brain proteomes from inhibitor treated mice (oral gavage, sacrificed 4 h after administration, ABPP analysis), FAAH; format: in vivo, mouse (C57Bl/6J); details: 5 mg/kg oral gavage
Experimental: as §2, §3

[6] = molecular target: T2, ABHD6; experiment: Mouse brain proteomes from inhibitor treated mice (oral gavage, sacrificed 4 h after administration, ABPP analysis), ABHD6; format: in vivo, mouse (C57Bl/6J); details: 5 mg/kg oral gavage
Experimental: as §2, §3

T3 sequence (O08914 whole entry): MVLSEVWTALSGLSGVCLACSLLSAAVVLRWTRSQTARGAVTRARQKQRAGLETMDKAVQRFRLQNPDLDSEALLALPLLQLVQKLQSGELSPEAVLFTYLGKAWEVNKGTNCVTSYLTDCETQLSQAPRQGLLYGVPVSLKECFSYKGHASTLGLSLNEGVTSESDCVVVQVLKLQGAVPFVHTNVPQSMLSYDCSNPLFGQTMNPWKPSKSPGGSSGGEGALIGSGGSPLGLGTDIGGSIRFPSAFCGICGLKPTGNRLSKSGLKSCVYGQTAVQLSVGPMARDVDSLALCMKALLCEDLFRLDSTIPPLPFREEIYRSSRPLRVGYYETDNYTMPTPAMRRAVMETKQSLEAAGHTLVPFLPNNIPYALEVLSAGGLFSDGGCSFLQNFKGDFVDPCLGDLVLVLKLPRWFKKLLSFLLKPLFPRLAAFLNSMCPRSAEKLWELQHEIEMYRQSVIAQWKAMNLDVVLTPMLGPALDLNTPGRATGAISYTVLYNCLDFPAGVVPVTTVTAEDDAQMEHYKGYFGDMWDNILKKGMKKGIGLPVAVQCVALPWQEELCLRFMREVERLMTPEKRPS
T2 sequence (Q8R2Y0 whole entry): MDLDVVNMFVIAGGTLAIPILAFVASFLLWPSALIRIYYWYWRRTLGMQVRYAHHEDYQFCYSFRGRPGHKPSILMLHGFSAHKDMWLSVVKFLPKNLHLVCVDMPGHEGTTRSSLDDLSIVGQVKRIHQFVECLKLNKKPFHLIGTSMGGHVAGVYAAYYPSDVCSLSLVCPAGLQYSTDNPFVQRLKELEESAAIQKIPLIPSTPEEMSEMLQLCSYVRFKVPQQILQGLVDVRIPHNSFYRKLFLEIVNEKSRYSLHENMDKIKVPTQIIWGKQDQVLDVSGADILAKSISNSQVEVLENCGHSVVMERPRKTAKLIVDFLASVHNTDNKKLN
T1 sequence (O35678 whole entry): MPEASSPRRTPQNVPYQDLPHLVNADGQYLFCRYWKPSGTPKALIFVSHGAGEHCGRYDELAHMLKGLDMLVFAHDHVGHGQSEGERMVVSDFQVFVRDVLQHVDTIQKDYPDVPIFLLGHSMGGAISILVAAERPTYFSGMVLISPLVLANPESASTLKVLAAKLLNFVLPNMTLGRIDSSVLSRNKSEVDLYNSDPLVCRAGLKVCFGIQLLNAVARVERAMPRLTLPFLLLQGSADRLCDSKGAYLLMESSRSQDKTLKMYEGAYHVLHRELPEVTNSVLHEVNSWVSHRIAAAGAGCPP

| Structure (SMILES) | inhibition at 1 µM ([1]; mouse proteome) [%] | pIC50 ([1]; mouse proteome) | inhibition at 1 µM ([2]; mouse proteome) [%] | pIC50 ([2]; mouse proteome) | inhibition at 1 µM ([3]; mouse proteome) [%] | pIC50 ([3]; mouse proteome) | MAGL % Inh 5 mg/kg (mouse) [4] | ABHD6 % Inh 5 mg/kg (mouse) [6] | inhibition at 1 µM ([1]; mouse) [%] | inhibition at 1 µM ([2]; mouse) [%] | inhibition at 1 µM ([3]; mouse) [%] | FAAH % Inh 5 mg/kg (mouse) [5] |
| --- | --- | --- | --- | --- | --- | --- | --- | --- | --- | --- | --- | --- |
| O=C(OC(C(F)(F)F)C(F)(F)F)N1CCC2(CCCN2Cc2ccccc2Cl)CC1 [Example 60, 1,1,1,3,3,3-Hexafluoropropan-2-yl 1-(2-chlorobenzyl)-1,8-diazaspiro[4.5]decane-8-carboxylate] | > 75 | > 7.00 | < 25 | < 6.00 | < 25 | < 6.00 | ### (### is ≥75%) | # (# is <25%) |  |  |  | ## (## is equal to or greater than 25% but less than 75%) |
| O=C(OC(C(F)(F)F)C(F)(F)F)N1CCC2(CCCN2Cc2ccc(Cl)c(C(F)(F)F)c2)CC1 [Example 184, 1,1,1,3,3,3-Hexafluoropropan-2-yl 1-(4-chloro-3-(trifluoromethyl)benzyl)-1,8-diazaspiro[4.5]decane-8-carboxylate] | > 75 | > 7.00 | < 25 | < 6.00 | < 25 | < 6.00 | ### (### is ≥75%) | # (# is <25%) |  |  |  | # (# is <25%) |
| O=C(OC(C(F)(F)F)C(F)(F)F)N1CCC2(CCN(Cc3ccc(N4CCCC4)c(Cl)c3)C2)CC1 [Example 139, 1,1,1,3,3,3-Hexafluoropropan-2-yl 2-(3-chloro-4-(pyrrolidin-1-yl)benzyl)-2,8-diazaspiro[4.5]decane-8-carboxylate] | > 75 | 6.00 to 7.00 | ≥ 75 | 6.00 to 7.00 | < 25 | < 6.00 |  |  |  |  |  |  |
| CC1(C)CC2(CCN(C(=O)OC(C(F)(F)F)C(F)(F)F)CC2)CN1Cc1ccc(C(F)(F)F)cc1N1CC2COCC2C1 (stereo not drawn) [Example 55, 1,1,1,3,3,3-Hexafluoropropan-2-yl 3,3-dimethyl-2-(2-(tetrahydro-1H-furo[3,4-c]pyrrol-5(3H)-yl)-4-(trifluoromethyl)benzyl)-2,8-diazaspiro[4.5]decane-8-carboxylate] | > 75 | > 7.00 | < 25 | < 6.00 | < 25 | < 6.00 |  |  |  |  |  |  |
| CC1(C)CC2(CCN(C(=O)OC(C(F)(F)F)C(F)(F)F)CC2)CN1Cc1c(N2CCC3(CCOCC3)C2)cccc1C(F)(F)F [Example 56, 1,1,1,3,3,3-Hexafluoropropan-2-yl 2-(2-(8-oxa-2-azaspiro[4.5]decan-2-yl)-6-(trifluoromethyl)benzyl)-3,3-dimethyl-2,8-diazaspiro[4.5]decane-8-carboxylate] | 25 to 75 | 6.00 to 7.00 | < 25 | < 6.00 | < 25 | < 6.00 |  |  |  |  |  |  |
| O=C(OC(C(F)(F)F)C(F)(F)F)N1CCC2(CCCN2Cc2cccc(N3CCN(C4CC4)CC3)c2Cl)CC1 [Example 115, 1,1,1,3,3,3-Hexafluoropropan-2-yl 1-(2-chloro-3-(4-cyclopropylpiperazin-1-yl)benzyl)-1,8-diazaspiro[4.5]decane-8-carboxylate] | > 75 |  | < 25 | < 6.00 | < 25 | < 6.00 |  |  |  |  |  |  |
| O=C(O)c1ccccc1CN1CCCC12CCN(C(=O)OC(C(F)(F)F)C(F)(F)F)CC2 [Example 251] |  |  |  |  |  |  |  |  | 25 to 75 | < 25 | < 25 |  |
| CC1(C)CC2(CCN(C(=O)OC(C(F)(F)F)C(F)(F)F)CC2)CN1Cc1cc(Cl)cc(N2CCOCC2)c1 [Example 186, 1,1,1,3,3,3-Hexafluoropropan-2-yl 2-(3-chloro-5-morpholinobenzyl)-3,3-dimethyl-2,8-diazaspiro[4.5]decane-8-carboxylate] | > 75 | 6.00 to 7.00 | 25 to 75 | 6.00 to 7.00 | < 25 | < 6.00 |  |  |  |  |  |  |
| O=C(OC(C(F)(F)F)C(F)(F)F)N1CCC2(CCCN2Cc2cccc(N3CCC(F)(F)CC3)c2Cl)CC1 [Example 111, 1,1,1,3,3,3-Hexafluoropropan-2-yl 1-(2-chloro-3-(4,4-difluoropiperidin-1-yl)benzyl)-1,8-diazaspiro[4.5]decane-8-carboxylate] | > 75 | > 7.00 | < 25 | < 6.00 | < 25 | < 6.00 |  |  |  |  |  |  |
| O=C(OC(C(F)(F)F)C(F)(F)F)N1CCC2(CCCN2Cc2ccc(N3CCOCC3)c(Cl)c2)CC1 [Example 127, 1,1,1,3,3,3-Hexafluoropropan-2-yl 1-(3-chloro-4-morpholinobenzyl)-1,8-diazaspiro[4.5]decane-8-carboxylate] | > 75 |  | 25 to 75 | < 6.00 | < 25 | < 6.00 |  |  |  |  |  |  |
| O=C(O)C1CCN(c2cc(CN3CCCC34CCN(C(=O)OC(C(F)(F)F)C(F)(F)F)CC4)cc(OC(F)(F)F)c2)CC1 [Example 207] | > 75 |  | < 25 |  | < 25 |  |  |  |  |  |  |  |
| O=C(O)c1cccc(CN2CCCC23CCN(C(=O)OC(C(F)(F)F)C(F)(F)F)CC3)c1 [Example 242] |  |  |  |  |  |  |  |  | 25 to 75 | 25 to 75 | < 25 |  |

Now from value to molecule, other results behind:

| inhibition at 1 µM ([1]; mouse proteome) [%] | pIC50 ([1]; mouse proteome) | inhibition at 1 µM ([2]; mouse proteome) [%] | pIC50 ([2]; mouse proteome) | inhibition at 1 µM ([3]; mouse proteome) [%] | pIC50 ([3]; mouse proteome) | MAGL % Inh 5 mg/kg (mouse) [4] | ABHD6 % Inh 5 mg/kg (mouse) [6] | inhibition at 1 µM ([1]; mouse) [%] | inhibition at 1 µM ([2]; mouse) [%] | inhibition at 1 µM ([3]; mouse) [%] | Structure (SMILES) | FAAH % Inh 5 mg/kg (mouse) [5] |
| --- | --- | --- | --- | --- | --- | --- | --- | --- | --- | --- | --- | --- |
| > 75 | > 7.00 | ≥ 75 | 6.00 to 7.00 | < 25 | < 6.00 |  |  |  |  |  | Cc1cc(CN2CCC3(CCN(C(=O)OC(C(F)(F)F)C(F)(F)F)CC3)C2)ccc1Cl [Example 135, 1,1,1,3,3,3-Hexafluoropropan-2-yl 2-(4-chloro-3-methylbenzyl)-2,8-diazaspiro[4.5]decane-8-carboxylate] |  |
| > 75 | > 7.00 | ≥ 75 | < 6.00 | < 25 | < 6.00 |  |  |  |  |  | CCN1CCc2cccc(CN3CCC4(CCN(C(=O)OC(C(F)(F)F)C(F)(F)F)CC4)C3)c2C1 [Example 159, 1,1,1,3,3,3-Hexafluoropropan-2-yl 2-((2-ethyl-1,2,3,4-tetrahydroisoquinolin-8-yl)methyl)-2,8-diazaspiro[4.5]decane-8-carboxylate] |  |
| > 75 | 6.00 to 7.00 | ≥ 75 | 6.00 to 7.00 | < 25 | < 6.00 |  |  |  |  |  | O=C(OC(C(F)(F)F)C(F)(F)F)N1CCC2(CCN(Cc3cccc(N4CCCC4)c3)C2)CC1 [Example 58, 1,1,1,3,3,3-Hexafluoropropan-2-yl 2-(3-(pyrrolidin-1-yl)benzyl)-2,8-diazaspiro[4.5]decane-8-carboxylate] |  |
| > 75 |  | < 25 |  | < 25 |  |  |  |  |  |  | O=C(OC(C(F)(F)F)C(F)(F)F)N1CCC2(CCCN2Cc2ccc(OCCN3CCOCC3)cc2)CC1 [Example 14, 1,1,1,3,3,3-Hexafluoropropan-2-yl 1-(4-(2-morpholinoethoxy)benzyl)-1,8-diazaspiro[4.5]decane-8-carboxylate] |  |
| > 75 | > 7.00 | ≥ 75 | > 7.00 | < 25 | < 6.00 |  |  |  |  |  | CC(=O)N1CCc2cccc(CN3CCC4(CCN(C(=O)OC(C(F)(F)F)C(F)(F)F)CC4)C3)c2C1 [Example 160, 1,1,1,3,3,3-Hexafluoropropan-2-yl 2-((2-acetyl-1,2,3,4-tetrahydroisoquinolin-8-yl)methyl)-2,8-diazaspiro[4.5]decane-8-carboxylate] |  |
| > 75 | 6.00 to 7.00 | 25 to 75 | < 6.00 | < 25 | < 6.00 |  |  |  |  |  | CC1(C)CC2(CCN(C(=O)OC(C(F)(F)F)C(F)(F)F)CC2)CN1Cc1cccc(CN2CCOCC2)c1F [Example 191, 1,1,1,3,3,3-Hexafluoropropan-2-yl 2-(2-fluoro-3-(morpholinomethyl)benzyl)-3,3-dimethyl-2,8-diazaspiro[4.5]decane-8-carboxylate] |  |
|  |  |  |  |  |  |  |  | > 75 | < 25 | < 25 | O=C(O)c1ccc(CN2CCCC23CCN(C(=O)OC(C(F)(F)F)C(F)(F)F)CC3)cc1 [Example 250] |  |
| > 75 |  | < 25 | < 6.00 | < 25 | < 6.00 |  |  |  |  |  | COc1cc(Cl)ccc1CN1CC2(CCN(C(=O)OC(C(F)(F)F)C(F)(F)F)CC2)CC1(C)C [Example 49, 1,1,1,3,3,3-Hexafluoropropan-2-yl 2-(4-chloro-2-methoxybenzyl)-3,3-dimethyl-2,8-diazaspiro[4.5]decane-8-carboxylate] |  |
